Assay results published in patent US5877204A, “Compounds containing a michael-acceptor, especially maleimide or maleic acid derivatives, directly or indirectly linked to a chromophore and their use in long lasting sunscreen compositions” (Vanguard Medica Limited, priority 1994, dated 1999).
Values joined by “and” are separate entries in the source; they are usually repeats but may differ in a detail not shown here. Equal values may be shown once. Read-outs that look alike come from different tables or passages of the source.

Legend:
[1] = Ames tests (mutagenicity and toxicity), with or without rat liver metabolic activation system S9; assay type: cell-based
Text: Among the important criteria for topically applied sunscreens, safety in use has the highest priority. It was thus necessary to investigate the mutagenicity of the maleimide and maleamic acid derivatives of sunscreens. Six compounds of the present invention were chosen as representative of the main classes of sunscreen and submitted for Ames tests.

[2] = background, known sunscreen absorbers; cited from earlier work
[3] = UV absorption of the chromophore (λmax, ε); assay type: physicochemical; set-up: key to λmax: λmax in nm; conditions: for ε: at λmax, in M-1·cm-1 (unit assumed)
Text: This can sometimes be a problem since if the change in λmax is too great, the chromophore may no longer absorb light in the UVA or UVB wavelength range.
An example of this change is 4-aminobenzophenone which has a λmax of 318 nm which is in the UVB range. When the amino group is replaced by a maleamic acid group, the λmax of the chromophore shifts to 306 nm which is still within the UVB range but when the amino group is replaced by a maleimide residue, the λmax falls to 258 nm. This is outside the range of UVB although there is a restoration of UVB activity when the maleimide is reacted with cysteine as it would be when applied to the skin (λmax=293 nm). The changes are easily rationalised on the basis of conjugative effects but the effects of attaching Michael acceptors to the various chromophores which may be used cannot always easily be predicted. This problem can be overcome to a large extent simply by separating the chromophore from the Michael acceptor using a spacer. Particularly useful compounds therefore include those in which the group R is C1 -C8 alkyl-YZ, C2 -C8 alkenyl-YZ or C2 -C8 alkynyl-YZR and especially those in which Y is O. Compounds in which a hexyloxy linker is used (that is, R is (CH2)6 OZ) are especially preferred.

DNA = conditions: cited from earlier work
[4] = Reaction of maleimide derivatives with L-cysteine ethyl ester (tlc); conditions: room temperature
Procedure: In order to underpin the principle of reaction of maleimido derivatives with the cysteine thiol groups, two model reactions were studied. Thus the reactions between L-cysteine ethyl ester and N-phenylmaleimide and N-(4-benzoylphenyl)maleimide were carried out. In each case, the reaction produced the diastereoisomeric product mixtures in reasonable yields at room temperature. All starting maleimides had reacted within 30 minutes (tlc). The two products were isolated and characterised.
The mildness and rapidity of these reactions indicate that the maleimido groups confer the ability for reaction with the nucleophilic groups of keratin.

hair keratin = assay: Substantivity test with human hair (uv assay of supernatant); assay type: binding
Procedure: Initial tests were conducted with human hair specially cleaned and prepared to provide as near to a standard substrate as possible. The method adopted utilised the reduction in ultra-violet absorptivity in the supernatant solution in contact with hair when the compound under test was absorbed into the hair surface. Standard and control solutions were employed. […] Similar tests with hair have been quoted in the patent literature as evidence, and as a standard test, for substantivity of sunscreens and other cosmetics.

horn hoof keratin = assay: Substantivity test with powdered horn-hoof keratin (uv absorptivity); assay type: binding, various animals
Text: Keratin prepared from the horns and hooves of various animals is commercially available, and this was used in a similar way to the hair (above). The keratin was finely powdered and stirred with a solution of the maleimido compound and its substantivity estimated by uv absorptivity measurements.

[5] = effect of attaching Michael acceptor to 4-aminobenzophenone chromophore
[6] = characterisation in the Examples, solvent not stated
[7] = uv assay, 1.0000 g hair, single tests (0.4520 g and 0.4670 g maleimide added)
[8] = 1.0000 g horn hoof keratin, single tests (0.4360 g and 0.4741 g maleimide added)
[9] = horn hoof keratin, average of the two tests

**Q.** What does the source list for `CCN1C(=O)C=CC1=O`?
**A.** Toxicity ([1]; +S9): 50 μG plate^-1; Toxicity ([1]; -S9): 25 μG plate^-1

**Q.** For `CCCCC(CC)COC(=O)C=Cc1ccc(OC)cc1` (centres unmarked) [2-ethylhexyl-4'-methoxycinnamate], which λmax [2] is on record?
**A.** The λmax was 308 nm.

**Q.** Which λmax [2] does the source give for `COc1ccc(C(=O)CC(=O)c2ccc(C(C)(C)C)cc2)cc1` [4-^t butyl-4'-methoxydibenzoylmethane] here?
**A.** Its λmax is 355 nm.

**Q.** With `Nc1ccc(C(=O)c2ccccc2)cc1` [4-aminobenzophenone, reference compound] as the compound, how does the λmax [3, 5] read?
**A.** Its λmax is 318 nm.

**Q.** With `COc1c2ccoc2cc2oc(=O)ccc12` [5-methoxypsoralen (5-MOP), 5-methoxypsoralen] as the compound, how does the “photobinding to DNA” value (DNA) read?
**A.** The value was “photobinds to DNA”.

**Q.** And the photocarcinogenicity (DNA)?
**A.** The photocarcinogenicity was “photocarcinogen”.

**Q.** What about the photomutagenicity (DNA) of the same compound?
**A.** The photomutagenicity was “photomutagen”.

**Q.** Which Toxicity ([1]; +S9) does the source give for `O=C(O)/C=C\C(=O)Nc1ccc(C(=O)O)cc1` [Example 1, N-(4-carboxyphenyl)maleamic Acid] here?
**A.** Its Toxicity is 5000 μG plate^-1.

**Q.** And the Toxicity ([1]; -S9)?
**A.** Its Toxicity is 5000 μG plate^-1.

**Q.** With `O=C(O)c1ccc(N2C(=O)C=CC2=O)cc1` [Example 2, N-(4-carboxyphenyl)maleimide] as the compound, how does the Toxicity ([1]; +S9) read?
**A.** Its Toxicity is 500 μG plate^-1.

**Q.** And the Toxicity ([1]; -S9)?
**A.** Its Toxicity is 500 μG plate^-1.

**Q.** Which results are given for `O=C(O)/C=C\C(=O)Nc1ccc(C(=O)c2ccccc2)cc1` [Example 3, N-(4-benzoylphenyl)maleamic Acid]?
**A.** ε ([3]; solvent not stated): 20560; λmax [3, 6]: 306 nm; λmax [3, 5]: 306 nm; Toxicity ([1]; +S9): 2500 μG plate^-1; Toxicity ([1]; -S9): 2500 μG plate^-1; Mutagenicity ([1]; Ames test, with or without S9): Negative

**Q.** What does the source list for `O=C(c1ccccc1)c1ccc(N2C(=O)C=CC2=O)cc1` [Example 4, N-(4-benzoylphenyl)maleimide]?
**A.** λmax [3, 5]: 258 nm; time within which all starting maleimide had reacted [4]: ≤ 30 min; Toxicity ([1]; +S9): 100 μG plate^-1; Toxicity ([1]; -S9): 40 μG plate^-1

**Q.** With `O=C(O)/C=C\C(=O)Nc1ccc(/C=C/C(=O)O)cc1` [Example 5, N-[4-(2-carboxy-(E)-ethenyl)phenyl]maleamic Acid] as the compound, how does the Toxicity ([1]; +S9) read?
**A.** Its Toxicity is 5000 μG plate^-1.

**Q.** And the Toxicity ([1]; -S9)?
**A.** Its Toxicity is 5000 μG plate^-1.

**Q.** Which results are given for `O=C(O)/C=C/c1ccc(N2C(=O)C=CC2=O)cc1` [Example 6, N-[4-(2-carboxy-(E)-ethenyl)phenyl]maleimide]?
**A.** Toxicity ([1]; +S9): 200 μG plate^-1; Toxicity ([1]; -S9): 200 μG plate^-1

**Q.** For `COC(=O)c1ccc(NC(=O)/C=C\C(=O)O)cc1` [Example 7, N-(4-methoxycarbonylphenyl)maleamic Acid], which ε ([3]; solvent not stated) is on record?
**A.** The ε was 16013.

**Q.** What about the λmax [3, 6] of the same compound?
**A.** The λmax was 294 nm.

**Q.** What does the source list for `COC(=O)c1ccc(N2C(=O)C=CC2=O)cc1` [Example 8, N-(4-methoxycarbonylphenyl)maleimide]?
**A.** ε ([3]; solvent not stated): 15844; λmax [3, 6]: 245 nm

**Q.** For `CCCCOC(=O)c1ccc(NC(=O)/C=C\C(=O)O)cc1` [Example 9, N-(4-n-butyloxycarbonylphenyl)maleamic Acid], which ε ([3]; solvent not stated) is on record?
**A.** The ε was 15806.

**Q.** What about the λmax [3, 6] of the same compound?
**A.** Its λmax is 294 nm.

**Q.** With `CCCCOC(=O)c1ccc(N2C(=O)C=CC2=O)cc1` [Example 10, N-(4-n-butyloxycarbonylphenyl)maleimide] as the compound, how does the ε ([3]; solvent not stated) read?
**A.** Its ε is 15563.

**Q.** And the λmax ([3]; characterisation in Example 10, unit not given)?
**A.** Its λmax is 245.

**Q.** For `O=C(O)/C=C\C(=O)NCCCCCCOc1ccc(C(=O)c2ccccc2)cc1` [Example 11, N-[6-(4-benzoylphenoxy)-hexyl]-maleamic Acid], which λmax ([3]; CH2 Cl2) is on record?
**A.** The λmax was 285 nm.

**Q.** And the ε ([3]; CH2 Cl2)?
**A.** Its ε is 16047.

**Q.** And the Toxicity ([1]; +S9)?
**A.** Its Toxicity is 2500 μG plate^-1.

**Q.** What about the Toxicity ([1]; -S9) of the same compound?
**A.** The Toxicity was 2500 μG plate^-1.

**Q.** Which results are given for `O=C(c1ccccc1)c1ccc(OCCCCCCN2C(=O)C=CC2=O)cc1` [Example 12, N-[6-(4-benzoylphenoxy)-hexyl]-maleimide]?
**A.** λmax ([3]; CH2 Cl2): 286 nm; ε ([3]; CH2 Cl2): 16590; Toxicity ([1]; +S9): 800 μG plate^-1; Toxicity ([1]; -S9): 200 μG plate^-1

**Q.** With `O=C1C=CC(=O)N1c1ccccc1` [N-phenylmaleimide] as the compound, how does the “time within which all starting maleimide had reacted” value [4] read?
**A.** Its value is no more than 30 min.

**Q.** And the Average substantivity (hair keratin; hair, average of the two tests)?
**A.** Its Average substantivity is 24.5%.

**Q.** What about the “Average wt maleimide absorbed” value (hair keratin; hair, average of the two tests) of the same compound?
**A.** Its value is 0.1129 g.

**Q.** And the “reduction in ultra-violet absorptivity of supernatant in contact with hair” value (hair keratin; initial tests, in words)?
**A.** Its value is “considerable reduction in absorptivity”.

**Q.** And the Substantivity (hair keratin; [7])?
**A.** Its Substantivity is 18.5% and 30.4%.

**Q.** What about the Wt maleimide absorbed (hair keratin; [7]) of the same compound?
**A.** The Wt maleimide absorbed was 0.0837 g and 0.1421 g.

**Q.** And the Substantivity (horn hoof keratin; [8])?
**A.** The Substantivity was 22.2% and 21.1%.

**Q.** What about the Wt maleimide absorbed (horn hoof keratin; [8]) of the same compound?
**A.** The Wt maleimide absorbed was 0.0968 g and 0.1001 g.

**Q.** And the Average substantivity (horn hoof keratin; [9])?
**A.** The Average substantivity was 21.7%.

**Q.** And the “Average wt maleimide absorbed” value (horn hoof keratin; [9])?
**A.** Its value is 0.0985 g.

**Q.** With `NC(CSC1CC(=O)N(c2ccc(C(=O)c3ccccc3)cc2)C1=O)C(=O)O` (centres unmarked) [maleimide reacted with cysteine] as the compound, how does the λmax [3, 5] read?
**A.** Its λmax is 293 nm.
